The test system of this test is ARPE-19 cells. Briefly: Neuronal-like differentiation in ARPE-19 retinal pigment epithelial cell cultures. It is filed as cell-based, human. The settings on record: 72 hrs incubation, optical microscope. How it is done:
ARPE-19 cells (obtained from the American Type Culture Collection, ATCC) were plated in flat bottom 96 well tissue culture microplates (Costar) at a concentration of 2-5×10^3 cells per well (1-2.5×10^4 cells/mL) in a growth medium consisting of DMEM:Ham F-12, 1:1, supplemented with 10% Fetal Bovine Serum, […] glutamine, 100 units/mL penicillin and 100 μg/mL streptomycin. The cells were allowed to adhere to the plate surfaces overnight prior to treatment with polymeric monoterpene.
Each type of polymeric monoterpene was synthesized to provide a 10% solution in grape seed oil, olive oil, Mygliol 810 or Mygliol 812. The preparations were added to the cultures at volumes of 0.5 μl, 2 μl, 5 μl and 20 μl. […]
The cultures were incubated in a 37° C., 5% CO2 incubator for 72 hrs. The medium was then removed, the cultures washed twice with phosphate buffered saline (PBS), fixed with absolute methanol for 10 min and stained with Hemacolor® reagents (Boehringer Mannheim), which stain cells in a manner similar to Giemsa, and may be used in a quantitative cell viability assay (see Keisari, Y. A colorimetric microtiter assay for the quantitation of cytokine activity on adherent cells in tissue culture. J. Immunol. Methods 146, 155-161, 1992). The degree of differentiation was determined by optical microscope. […]

SMILES strings stand for the structures.

Regarding `CC=C(C)C=CC=C(C)C` [monomeric alloocimene, 2,6-dimethyl-2,4,6-octatriene], the “induction of neuronal differentiation (morphology)” value is “showed no such effects”. The “induction of neuronal differentiation (morphology)” value (listed as monomeric allocimene) is reported as “has no influence on the cells”.

The record behind these values is patent US20120213727A1, “THERAPEUTIC USES OF OLIGOMERIC AND POLYMERIC MONOTERPENES” (REGENERA PHARMA LTD., priority 2009, published 2012).
